Where two headings read alike, the source gives them in different places.
Columns and labels:
TIM of T. cruzi (TcTIM) = biological target: T1, TIM of T. cruzi (TcTIM) (Trypanosoma cruzi, UniProt P52270); test: Inhibition of activity of recombinant wild type TcTIM after 2 h incubation; type: biochemical
T1 construct: made in house; host or cells: Escherichia coli
Description: (§1) TcTIM [19] and TIMs from T. brucei, L. mexicana, and Homo sapiens were expressed in Escherichia coli and purified as described in the indicated references. After purification, the enzymes dissolved in 100 mM triethanolamine, 10 mM EDTA and 1 mM dithiothreitol (pH 8) were precipitated with ammonium sulfate (75% saturation) and stored at 4°C. Before use, the enzymes were extensively dialyzed against 100 mM triethanolamine/10 mM EDTA (pH 7.4). Protein was determined from their absorbance at 280 nm. The ε M^−1 cm^−1 was 36440 for TcTIM, and 33460 for TbTIM and LmTIM.
(§2) In all the experiments, a solution of DTDA in dimethylsulfoxide (DMSO) was used. The final DMSO concentration in all experiments was 10% (v/v).
(§3) The indicated TIMs were incubated at pH 7.4 at a concentration of 5 µg per ml of 100 mM triethanolamine, 10 mM EDTA, 10% dimethyl sulfoxide (v/v), and DTDA at the concentrations indicated in the Results section for 2 hours at 36°C. At this time, an aliquot was withdrawn for assay of activity.
(§4) Activity was determined in the direction of glyceraldehyde 3-phosphate to dihydroxyacetone phosphate. The decrease in absorbance at 340 nm was followed in a Hewlett Packard spectrophotometer at 25°C. The reaction mixture (1 ml) contained 100 mM triethanolamine, 10 mM EDTA, 0.2 mM NADH, 1 mM glyceraldehyde 3-phosphate, and 0.9 units α-glycerolphosphate dehydrogenase (pH 7.4). The reaction was started by the addition of TIM, usually 5 ng. The average specific activity of the various preparations of TcTIM used in this work was 2900±200 µmol/min/mg.

rats = system: rats; parameters: method as in PMID 4078223; conditions: cited from earlier work
[1] = biological target: T2, TIM from H. sapiens (HTIM) (Homo sapiens, UniProt P60174); test: Inhibition of activity of human TIM after 2 h incubation; type: biochemical
T2 construct: made in house; host or cells: Escherichia coli
Description: as §1, §2, §3, §4

TbTIM = biological target: T3, TbTIM (Trypanosoma brucei brucei, UniProt P04789); test: Inhibition of activity of TbTIM after 2 h incubation; type: biochemical
T3 construct: made in house; host or cells: Escherichia coli
Description: as §1, §2, §3
as §4, with “The reaction was started by the addition of TIM, usually 5 ng. The average specific activity of the various preparations of TcTIM used in this work was 2900±200 µmol/min/mg.” left out

LmTIM = biological target: T4, LmTIM (Leishmania mexicana, UniProt P48499); test: Inhibition of activity of LmTIM after 2 h incubation; type: biochemical
T4 construct: made in house; host or cells: Escherichia coli
Description: as §1, §2, §3, §4

TcTIM C118V = biological target: T5, TcTIM C118V (Trypanosoma cruzi, UniProt P52270, C118V); test: Inhibition of activity of TcTIM C118V mutant; type: biochemical; conditions: 2 h, 36°C, 10% DMSO, read-out: IC50, concentration of DTDA that induces 50% inhibition
T5 construct: made in house
Description: as §2, §3, §4

TbTIM V118C = TbTIM V118C (Trypanosoma brucei brucei, UniProt P04789, V117C); test: Inhibition of activity of TbTIM V118C mutant; type: biochemical
Description: as §2, §3, §4

TcTIM C15A = biological target: T6, TcTIM C15A (Trypanosoma cruzi, UniProt P52270, C15A); test: Inhibition of activity of TcTIM C15A mutant; type: biochemical; conditions: 2 h, 36°C, 10% DMSO, read-out: IC50, concentration of DTDA that induces 50% inhibition
T6 construct: made in house
Description: as §2, §3, §4

TcTIM C40A = biological target: T7, TcTIM C40A (Trypanosoma cruzi, UniProt P52270, C40A); test: Inhibition of activity of TcTIM C40A mutant; type: biochemical; conditions: half-maximal inhibition of the initial phase (biphasic response), read-out: IC50, concentration of DTDA that induces 50% inhibition
T7 construct: made in house
Description: as §2, §3, §4

TcTIM C127A = biological target: T8, TcTIM C127A (Trypanosoma cruzi, UniProt P52270, C127A); test: Inhibition of activity of TcTIM C127A mutant; type: biochemical; conditions: 2 h, 36°C, 10% DMSO, read-out: IC50, concentration of DTDA that induces 50% inhibition
T8 construct: made in house
Description: as §2, §3, §4

E. coli JM103 cells = test: Growth of intact E. coli (own TIM) in minimal media; type: cell-based, Escherichia coli; conditions: 30 µM, M9 medium, 10% DMSO, absorbance at 600 nm
Description: (§5) E. coli JM103 cells were used as control. E. coli devoid of their endogenous TIM termed VR101 [10] were kindly provided by Dr. Gloria Saab-Rincón; these cells have a kanamicin resistant cassette. […] The strains were grown at 37°C in solid Luria-Bertani medium that had been supplemented with 50 µg of kanamycin and 50 µg of ampicilin per ml. One colony was transferred to M9 medium that had 10% DMSO and 50 µg of each of the latter antibiotics per ml. Growth of the various cells was followed throughout time by measuring the absorbance of the culture at 600 nm.

[2] = system: E. coli cells that had TcTIM instead of their own TIM; test: Growth of E. coli devoid of endogenous TIM transformed with TcTIM; type: cell-based, Escherichia coli
Description: as §5

T. cruzi epimastigotes = test: Culture of T. cruzi epimastigotes, cell number up to 72 hours; type: cell-based, Trypanosoma cruzi
Description: Where indicated in the Results section, the media was supplemented with the indicated concentrations of DTDA. The number of cells was recorded at various times for as long as 72 hours.

hemoglobin = system: hemoglobin; parameters: method as in PMID 4078222; conditions: cited from earlier work
rodents = system: rodents; parameters: method as in PMID 7265299; conditions: cited from earlier work
[3] = concentrations as high as 200 µM

T2 sequence (P60174 whole entry): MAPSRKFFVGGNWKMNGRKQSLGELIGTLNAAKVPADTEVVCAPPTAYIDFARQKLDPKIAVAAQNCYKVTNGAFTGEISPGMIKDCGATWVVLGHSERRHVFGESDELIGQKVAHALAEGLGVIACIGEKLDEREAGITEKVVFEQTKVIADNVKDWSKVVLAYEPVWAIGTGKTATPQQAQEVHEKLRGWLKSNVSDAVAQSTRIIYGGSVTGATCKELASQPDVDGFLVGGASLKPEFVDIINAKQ
T4 sequence (P48499 whole entry): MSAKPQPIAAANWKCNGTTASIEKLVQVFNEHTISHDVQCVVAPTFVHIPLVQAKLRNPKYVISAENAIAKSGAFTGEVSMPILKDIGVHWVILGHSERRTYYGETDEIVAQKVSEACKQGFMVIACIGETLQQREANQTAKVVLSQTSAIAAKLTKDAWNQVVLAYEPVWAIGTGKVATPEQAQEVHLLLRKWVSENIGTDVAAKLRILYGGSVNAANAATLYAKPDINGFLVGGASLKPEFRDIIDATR
T1 sequence (P52270 whole entry): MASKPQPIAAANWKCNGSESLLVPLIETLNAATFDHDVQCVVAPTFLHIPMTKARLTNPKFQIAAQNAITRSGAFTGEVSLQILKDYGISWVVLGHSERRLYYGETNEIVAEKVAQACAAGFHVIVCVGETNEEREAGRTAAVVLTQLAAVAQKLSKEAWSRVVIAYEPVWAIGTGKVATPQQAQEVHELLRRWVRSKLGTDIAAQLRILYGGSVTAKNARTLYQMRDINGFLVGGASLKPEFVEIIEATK
Chain of TbTIM V118C (P04789 whole entry V117C): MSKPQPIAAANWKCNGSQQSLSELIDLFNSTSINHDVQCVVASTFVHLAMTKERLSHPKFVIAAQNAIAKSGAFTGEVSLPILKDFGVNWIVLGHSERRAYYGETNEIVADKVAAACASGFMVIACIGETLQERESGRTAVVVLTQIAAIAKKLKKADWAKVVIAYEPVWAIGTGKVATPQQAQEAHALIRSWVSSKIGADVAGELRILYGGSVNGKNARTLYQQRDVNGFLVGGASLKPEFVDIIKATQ
T3 sequence (P04789 whole entry): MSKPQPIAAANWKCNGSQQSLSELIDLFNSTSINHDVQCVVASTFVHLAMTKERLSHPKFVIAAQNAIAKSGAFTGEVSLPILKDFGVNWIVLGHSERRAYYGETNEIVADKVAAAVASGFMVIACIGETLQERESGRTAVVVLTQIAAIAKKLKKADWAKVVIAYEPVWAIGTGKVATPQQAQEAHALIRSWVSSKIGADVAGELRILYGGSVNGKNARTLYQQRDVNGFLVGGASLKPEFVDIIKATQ
T5 sequence (P52270 whole entry C118V): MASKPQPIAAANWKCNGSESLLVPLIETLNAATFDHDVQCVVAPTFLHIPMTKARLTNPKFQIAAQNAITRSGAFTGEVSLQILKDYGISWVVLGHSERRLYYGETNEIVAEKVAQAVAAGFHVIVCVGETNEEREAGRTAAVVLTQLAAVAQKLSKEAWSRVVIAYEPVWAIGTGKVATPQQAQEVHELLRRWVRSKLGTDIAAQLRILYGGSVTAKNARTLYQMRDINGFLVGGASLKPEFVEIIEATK
T7 sequence (P52270 whole entry C40A): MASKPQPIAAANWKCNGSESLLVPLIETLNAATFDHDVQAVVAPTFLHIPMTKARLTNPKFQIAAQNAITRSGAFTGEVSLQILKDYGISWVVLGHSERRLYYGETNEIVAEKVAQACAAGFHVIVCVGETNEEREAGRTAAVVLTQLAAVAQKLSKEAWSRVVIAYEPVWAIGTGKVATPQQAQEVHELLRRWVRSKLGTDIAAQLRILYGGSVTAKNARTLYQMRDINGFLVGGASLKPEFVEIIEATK
T8 sequence (P52270 whole entry C127A): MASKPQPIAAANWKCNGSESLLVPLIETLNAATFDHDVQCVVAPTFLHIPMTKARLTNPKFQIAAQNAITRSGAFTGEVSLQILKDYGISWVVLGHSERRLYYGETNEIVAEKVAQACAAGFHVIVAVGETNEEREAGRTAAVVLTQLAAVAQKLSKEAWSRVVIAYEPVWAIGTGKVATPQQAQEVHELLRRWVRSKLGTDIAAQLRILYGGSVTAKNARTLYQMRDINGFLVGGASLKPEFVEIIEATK
T6 sequence (P52270 whole entry C15A): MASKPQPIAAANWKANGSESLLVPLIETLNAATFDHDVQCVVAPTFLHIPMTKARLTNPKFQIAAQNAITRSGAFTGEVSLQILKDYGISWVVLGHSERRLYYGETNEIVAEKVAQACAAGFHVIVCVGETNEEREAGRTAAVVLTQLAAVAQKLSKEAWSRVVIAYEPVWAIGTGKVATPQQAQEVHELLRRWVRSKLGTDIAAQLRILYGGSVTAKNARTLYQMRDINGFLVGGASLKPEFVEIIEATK

With Nc1ccccc1SCSc1ccccc1N [2,2′-(methylenebisthioaniline)] the IC50 (TIM of T. cruzi (TcTIM); read-out: concentration required to inhibit the activity of TcTIM by 50%) was 50000 nM.
In the case of Nc1ccc(SSc2ccc(N)cc2)cc1 [4,4′-diamino disulfide], the “toxic effect on administration to rats” value (rats) is given as “hematological alterations”.
For Nc1ccccc1SSc1ccccc1N [DTDA, 2,2′-dithiodianiline], the IC50 (TIM of T. cruzi (TcTIM); 2 h, 36°C, 10% DMSO, read-out: concentration that induced 50% inhibition of the activity of TcTIM) was 260 nM, the IC50 (TIM of T. cruzi (TcTIM); TcTIM wild, 5 µg/ml enzyme, 2 h, 36°C, 10% DMSO, read-out: IC50, concentration of DTDA that induces 50% inhibition) was 258 ± 35 nM and the “effect on the activity of HTIM” value ([1]; 10 µM, 2 h, 36°C) was “did not affect”. The IC50 ([1]; 2 h, 36°C, 10% DMSO, read-out: concentration for fifty percent inhibition of HTIM activity) was 98000 nM, the “selectivity for TcTIM in reference to HTIM” value ([1]; ratio of concentrations for 50% inhibition, HTIM vs TcTIM) was ~400 times and the “effect on the activity of TbTIM” value (TbTIM; 10 µM, 2 h, 36°C) was “did not affect”. The “sensitivity of TbTIM activity” value (TbTIM; [3]) was “completely insensitive”, the “effect on the activity of LmTIM” value (LmTIM; 10 µM, 2 h, 36°C) was “did not affect” and the IC50 (LmTIM; LmTIM, 2 h, 36°C, 10% DMSO, read-out: IC50, concentration of DTDA that induces 50% inhibition) was > 200000 nM. The “sensitivity of LmTIM activity” value (LmTIM; [3]) was “completely insensitive”, the IC50 (TcTIM C118V) was 208 ± 37 nM and the IC50 (TbTIM V118C) was > 200000 nM. The “sensitivity of TbTIM V118C mutant activity” value (TbTIM V118C; 200 µM) was “insensitive”, the IC50 (TcTIM C15A) was 346 ± 32 nM and the IC50 (TcTIM C40A) was 1530 ± 450 nM. The IC50 (TcTIM C127A) was 57 ± 8 nM, the “effect on growth of E. coli cells that worked with their own TIM” value (E. coli JM103 cells) was “had no effect” and the “effect on growth of E. coli cells that relied on the function of TcTIM” value ([2]; 30 µM, M9 medium, 10% DMSO, absorbance at 600 nm) was “effectively prevented”. For the same compound, the “effect on the lag that precedes logarithmic growth of TcTIM transformed E. coli” value ([2]; concentrations as low as 4 µM) was “important increase in the lag”, the “permeability of biological membranes to the compound” value ([2]; inferred from the effect on TcTIM transformed E. coli) was “permeable” and the “effect on growth of T. cruzi epimastigotes” value (T. cruzi epimastigotes; 4 µM, up to 72 hours) was “inhibition of growth”. The “effect on survival of T. cruzi parasites in cell cultures” value (T. cruzi epimastigotes; 10 µM and 15 µM) was “causes death of parasites”, the “effect on growth of T. cruzi epimastigotes” value (T. cruzi epimastigotes; 4–8 µM) was “significant inhibition of the growth” and the “effect on the number of T. cruzi epimastigotes in culture” value (T. cruzi epimastigotes; concentrations higher than 8 µM, up to 72 hours) was “significant decrease in the number of cells”. For the same compound, the effect on hemoglobin (hemoglobin) was “irreversible oxidation of hemoglobin”.
In the case of diaminodiphenyldisulfide, the “toxic effect on the kidney” value (rodents) is listed as “atrophy and hyperplasia in the kidney” and the “toxic effect on the liver” value (rodents) is listed as “necrotic changes in the liver”.
